Data set [1] relates to Caspase-7. Also noted: method as in Li et al. 44. The note with it: ref Li et al. 44; cited from earlier work.
Data set [2] deals with HepG2 cells. Description: MTT cytotoxicity against HepG2 tumor cell line. As to conditions: read-out: Cytotoxic activity against HepG2 cell line IC50, 48 h, average of 3 independent runs ± SE.
Data set [3] relates to Bax. Also noted: method as in Li et al. 44. As to conditions: ref Li et al. 44; cited from earlier work.
For data set [4], the system named is HepG2 cells. The note with it: at its IC50 for 48 h; cited from earlier work.
Data set [5] has as its system HepG2 cells. The note with it: cited from earlier work.
The nature of data set [6]: MTT cytotoxicity against THLE-2 normal liver cell line. The note with it: human, THLE-2 normal liver epithelial cells; MTT, 48 h; measured in triplicates; read-out: CC50 cytotoxic activity against THLE-2 normal cell line. It is filed as cell-based, human. On the procedure:
(§1) The produced formazan was measured by means of the spectrophotometer ROBONIK P2000 at a wavelength of 570 nm. The Cytotoxic concentration values (CC50) of the assessed compounds were reported as the mean of three independent runs ± SE[69].

For data set [7], the system named is Bax. The experiment in a line: Western blotting of Bax protein expression in HepG2 cells. It is filed as cell-based, human. The note with it: HepG2, 48 h at IC50 concentration; normalized to β-actin. On the procedure: (§2) Western blotting was performed to assess the relative normalized protein expression of the apoptotic proteins Bax and Caspase-7 in HepG2 cancer cells when pre-treated for 48 h with compound 10i at its IC50 concentration in comparison to non-treated HepG2 cells. […] The current findings provide strong evidence for the positive apoptotic activity of compound 10i in HepG2 cells that accompanies its inhibitory activity on cell proliferation.
(§3) Cells were harvested and washed with phosphate buffer saline (PBS). The cells were then lysed in 10 mM Tris–HCl, 100 mM NaCl, 0.5% Triton X-100, pH 7.6 with EDTA-free Protease Inhibitor Cocktail. This was followed by a centrifugation step at 13,000g for 20 min at 4 °C and direct transfer to sodium dodecyl sulfate–polyacrylamide gel (SDS–PAGE). Western blot analysis was performed using primary antibodies against the target proteins and HRP-conjugated secondary antibodies (Table 12). The chemiluminescence reaction was performed using the ECL western blot HRP substrate (Pierce, Thermo Fisher Scientific). Finally, densitometric quantification of Western blot protein bands were performed with IMAGEJ Software.

For the next data set, the system named is VEGFR-2 gene. The experiment in a line: RT-qPCR of VEGFR-2 gene expression in HepG2 cells. It is filed as cell-based, human. As to conditions: HepG2, 48 h at IC50 concentration; normalized to β-actin. The protocol: RT-qPCR was performed to assess the relative normalized gene expression of VEGFR-2 gene in HepG2 cancer cells when pre-treated for 48 h with compound 10i at its IC50 concentration utilizing non-treated HepG2 cells as negative control.
Total RNA was isolated from both 10i-treated and untreated HepG2 cell line pellets using Qiagen RNeasy Mini kit Cat# No. 74104 according to the manufacturer’s guidelines. Then, quantification and quality assessment of the isolated RNA samples were determined by the Nanodrop spectrophotometer at A230, A260 and A280.
cDNA synthesis was performed for RNA using the Promega cDNA Synthesis AMV Reverse Transcriptase Kit (cat# M5108) according to the manufacturer’s instructions. The cDNA synthesis was performed on Bio-Rad 100 Thermal cycler.
Primers for the VEGFR-2 gene were designed and synthesized followed by primer validation and optimization of PCR amplification conditions. RT-qPCR expression analysis for the required genes (ß-actin and VEGFR-2) has been done using the Qiagen Quanti Nova SYBR Green PCR Kit (cat # 208052).
Background: Real-time PCR tracks product formation cycle by cycle.

For data set [8], the system named is Caspase-7. Description: Western blotting of Caspase-7 protein expression in HepG2 cells. It is filed as cell-based, human. The note with it: HepG2, 48 h at IC50 concentration; normalized to β-actin. The protocol: as §2, §3
The test system of data set [9] is HepG2 cells. The experiment in a line: Cell cycle analysis by DNA flow cytometry. It is filed as cell-based, human. The note with it: HepG2, 48 h at IC50 concentration; frequency of cells, triplicate ± SD. On the procedure:
DNA flow cytometry was used to analyze the cell cycle kinetics of HepG2 cancer cells when pre-treated for 48 h with compound 10i at its IC50 concentration. Non-treated HepG2 cells were considered as negative control.
The assay was performed as previously mentioned. In brief, HepG2 cells were pre-incubated with compound 10i at its IC50 concentration for 48 h. Then, about 10^5 cells were attained by trypsinization and washed with phosphate buffer saline (PBS). This was followed by a resuspension step with 60% ice-cold ethanol and incubation till fixation occurs. The fixed cells were washed again and resuspended in a buffer that included 50 μg/mL RNAase A and 10 μg/mL propidium iodide. Finally, cells were incubated at 37 °C in the dark for 20 min and analyzed for the cell cycle kinetics using flow cytometry where FL2 (λex/em 535/617 nm) was used as the signal detector (ACEA Novocyt flowcytometer, ACEA Biosciences Inc., San Diego, CA, USA). A query of 12,000 events was recommended for each sample. ACEA NovoExpress software (ACEA Biosciences Inc., San Diego, CA, USA) was used for analysis.

A further data set addresses VEGFR-2 (Homo sapiens, UniProt P35968). The experiment in a line: VEGFR-2 kinase inhibition assay (Kinase-Glo MAX luminescence kit, BPS Bioscience).
The subject of data set [10] is Transformed Human Liver Epithelial-2 normal cell line (THLE-2). Description: MTT cytotoxicity against THLE-2 normal liver cell line. It is filed as cell-based. As to conditions: CC50 (THLE-2) / IC50 (HepG2). On the procedure: as §1

VEGFR-2, sequence (P35968 20-1356): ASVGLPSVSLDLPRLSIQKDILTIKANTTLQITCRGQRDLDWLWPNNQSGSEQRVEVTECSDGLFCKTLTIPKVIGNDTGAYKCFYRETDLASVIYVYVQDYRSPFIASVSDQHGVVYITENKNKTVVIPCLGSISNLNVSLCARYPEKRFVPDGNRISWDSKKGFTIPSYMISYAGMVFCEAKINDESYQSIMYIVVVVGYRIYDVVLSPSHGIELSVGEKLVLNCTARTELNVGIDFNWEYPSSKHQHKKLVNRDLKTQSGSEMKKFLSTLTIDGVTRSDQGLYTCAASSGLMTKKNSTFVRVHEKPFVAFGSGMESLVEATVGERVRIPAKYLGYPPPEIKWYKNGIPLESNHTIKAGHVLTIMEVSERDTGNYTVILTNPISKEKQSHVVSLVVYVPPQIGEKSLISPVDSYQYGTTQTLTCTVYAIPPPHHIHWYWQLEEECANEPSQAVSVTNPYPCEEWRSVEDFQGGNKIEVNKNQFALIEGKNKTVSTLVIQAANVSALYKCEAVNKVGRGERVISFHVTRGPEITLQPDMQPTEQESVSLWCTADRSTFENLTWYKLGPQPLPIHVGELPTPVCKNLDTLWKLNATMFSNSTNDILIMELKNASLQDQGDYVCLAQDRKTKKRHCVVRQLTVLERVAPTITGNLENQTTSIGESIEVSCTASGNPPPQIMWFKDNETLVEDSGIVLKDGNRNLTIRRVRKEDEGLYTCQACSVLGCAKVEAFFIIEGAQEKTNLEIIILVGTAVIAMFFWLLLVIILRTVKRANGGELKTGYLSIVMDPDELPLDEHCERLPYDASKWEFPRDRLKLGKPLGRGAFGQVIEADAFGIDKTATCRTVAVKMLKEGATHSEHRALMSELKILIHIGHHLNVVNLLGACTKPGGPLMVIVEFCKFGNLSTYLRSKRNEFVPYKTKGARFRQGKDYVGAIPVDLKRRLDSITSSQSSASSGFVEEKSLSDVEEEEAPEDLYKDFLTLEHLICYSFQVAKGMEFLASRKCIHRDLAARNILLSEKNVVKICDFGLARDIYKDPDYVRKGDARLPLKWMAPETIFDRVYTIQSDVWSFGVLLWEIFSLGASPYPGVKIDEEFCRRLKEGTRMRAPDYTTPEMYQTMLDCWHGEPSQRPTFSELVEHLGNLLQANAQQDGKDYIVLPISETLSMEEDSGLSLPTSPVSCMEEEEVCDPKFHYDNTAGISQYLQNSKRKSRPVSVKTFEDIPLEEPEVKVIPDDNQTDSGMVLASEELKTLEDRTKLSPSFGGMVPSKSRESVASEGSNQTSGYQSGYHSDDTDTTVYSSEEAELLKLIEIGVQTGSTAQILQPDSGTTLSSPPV

As for `CNC(=O)c1cc(Oc2ccc(NC(=O)Nc3ccc(Cl)c(C(F)(F)F)c3)cc2)ccn1` [Sorafenib], in the data set on Caspase-7 [1], the “Effect on caspase-7 expression in HepG2 cells” value is recorded as “significantly upregulate the expression of caspase-7”. In addition, the IC50 in the data set on HepG2 cells [2] stood at 8.38 ± 0.5 µM. Also, the “Effect on Bax expression in HepG2 cells” value in the data set on Bax [3] is recorded as “no significant upregulation”. The “Effect on cell cycle kinetics of HepG2 cells” value with HepG2 cells [4] is “sequestration of cells in the PreG1 (or Sub-G1 (G0)), as well as cell growth arrest in G2/M phase”. In the data set on HepG2 cells [5], the “Combined apoptosis, percent cell population” value was 6.37% and the “Late apoptotic phase, percent cell population” value is 4.2%. In data set [6], the CC50 at 48 h stood at 18.5 µM.
On to `CC(C)c1ccc(NC(=O)Nc2ccc(NC(=O)c3c[nH]c4ccc(Cl)cc4c3=O)cc2)cc1` [Compound 10i, 6-Chloro-N-(4-(3-(4-isopropylphenyl)ureido)phenyl)-4-oxo-1,4-dihydroquinoline-3-carboxamide], for which the “Induction of Bax protein expression compared to negative control” value in the data set on Bax [7] was “up to 20 folds”. Besides, in the data set with VEGFR-2 gene, the “Decrease of VEGFR-2 gene expression compared to untreated cells” value came out at 84%. The IC50 with HepG2 cells [2] came out at 1.6 ± 0.17 µM. Further, the “Induction of Caspase-7 protein expression compared to negative control” value with Caspase-7 [8] is on record as at most 6 folds. Moreover, in the data set with HepG2 cells [9], the “Freq G1” value is recorded as “***2.067 ± 0.189”, the “Freq G2” value is reported as “***49.80 ± 1.466”, the “Freq S” value is listed as “***7.920 ± 0.2117” and the “Freq Sub-G1” value is “***20.80 ± 0.7102”. Moreover, the “Fold increase in VEGFR-2 inhibitory activity compared to para methyl substituted derivatives 10b and 10k” value at VEGFR-2 (4-isopropyl vs 4-CH3 analogue) is “more than 16 fold”. The molecule further showed an IC50 against VEGFR-2 (VEGFR-2 inhibitory activity IC50, average of 3 independent runs ± SE) of 0.036 ± 1e-05 µM. The “Selectivity index (SI)” value in data set [10] is listed as 13.13. Also, the CC50 at 48 h in data set [6] was found to be 21 µM.

As usually defined, the IC50 is the concentration at which inhibition is half-maximal. The CC50 is the concentration at which the toxic effect on the cells reaches its halfway point.

(Values after paper PMC10444817, “New proapoptotic chemotherapeutic agents based on the quinolone-3-carboxamide scaffold acting by VEGFR-2 inhibition” (Scientific Reports, 2023).)
